Reference: patent US8389573B2, “Glycyrrhetinic acid derivatives” (Wellington Laboratories Inc., priority 2006, dated 2013)

System: AR mRNA
Test: Real-time PCR of AR mRNA in LNCaP cells
Type: cell-based, human
Description: Real-Time PCR: Total RNA was isolated using the RNeasy Protect Mini kit (QIAGEN, Valencia, Calif.) according to the manufacturer's protocol. RNA was eluted with 30 μl of RNasefree water and stored at −80° C. RNA was reverse transcribed using Superscript II reverse transcriptase (Invitrogen) according to the manufacturer's protocol. cDNA was prepared from the LNCaP cell line using a combination of oligodeoxythymidylic acid and dNTP mix (Applied Biosystems, Foster City, Calif.) and Superscript II (Invitrogen). Each PCR was carried out in triplicate in a 25-μl volume using SYBR Green Master mix (Applied Biosystems) for 15 min at 95° C. for initial denaturing, followed by 40 cycles of 95° C. for 30 s and 60° C. for 1 min in the ABI Prism 7700 sequence detection system (Applied Biosystems). The ABI Dissociation Curves software was used after a brief thermal protocol (95° C. 15 s and 60° C. 20 s, followed by a slow ramp to 95° C.) to control for multiple species in each PCR amplification. The comparative CT method was used for relative quantitation of samples. Values for each gene were normalized to expression levels of TATA-binding protein. Primers were purchased from Integrated DNA Technologies (Coralville, Iowa). The sequences of the primers used for reverse transcription-PCR were as follows: AR forward, 5′-GTA CCC TGG CGG CAT GGT-3′ [SEQ ID NO: 1] and AR reverse, 5′-CCCATTTCGCTTTTGACACA-3′ [SEQ ID NO: 2]; PSA forward, 5′-GCATTGAACCAGAGGAGTTCTTG-3′ [SEQ ID NO: 3] and PSA reverse, 5′-TTG CGC ACA CAC GTC ATT G-3′ [SEQ ID NO: 4]; and TATA-binding protein forward, 5′-TGCACAGGAGCCAAGAGTGAA-3′ [SEQ ID NO: 5] and reverse, 5′-CACATCACAGCTCCCCACCA-3′ [SEQ ID NO: 6].

COC(=O)[C@@]1(C)CC[C@]2(C)CC[C@]3(C)C(=CC(=O)[C@@H]4[C@@]5(C)C=C(C#N)C(=O)C(C)(C)[C@@H]5CC[C@]43C)[C@@H]2C1 [β-CDODA-Me, Methyl 2-cyano-3,11-dioxo-18β-oleana-1,12-dien-30-oate]
AR mRNA effects in the presence of cycloheximide (10 μg/ml): did not modulate
AR mRNA levels after cotreatment with T007: did not affect mRNA levels
AR mRNA levels (12 and 18 hr): decreases AR mRNA levels
